Experimental findings from ChEMBL document CHEMBL6134848, “Deuteration Strategy-Inspired Design of Novel Diarylpyrimidine Derivatives as Potent Non-Nucleoside Reverse Transcriptase Inhibitors Featuring Improved Efficacy, Selectivity, and Druggability” (J Med Chem, 2025) are described below.

Data set [1] relates to Human immunodeficiency virus 1. Briefly: Antiviral activity against wild-type HIV-1 IIIB infected in human MT4 cells assessed as protection against virus-induced cytopathicity measured after 5 days post-infection by MTT assay. It counts as functional, organism-based. As to conditions: Human immunodeficiency virus 1, IIIB, MT4, 120 h. On the technique in general: Cytopathic effects are the visible damage that an infection or toxin causes in cultured cells.

Data set [2] in a line: Cytotoxicity against human MT4 cells assessed as reduction in cell viability by MTT assay. It is filed as toxicity, cell-based. (In general: Tetrazolium assays rely on reduction of a dye to a coloured formazan, in cell work by metabolically active cells.)
A short description of data set [3]: Metabolic stability in human liver microsomes assessed as half life at 1 uM measured up to 45 mins by LC/MS/MS analysis. It counts as ADME, Microsome. As to conditions: for half-life at 1 µM: liver microsomes. Background: Liver microsomes are vesicles of endoplasmic reticulum, rich in cytochrome P450 enzymes.
For data set [4], the system named is Human immunodeficiency virus 1. Briefly: Antiviral activity against drug-resistant HIV-1 harboring RT L100I mutant infected in human MT4 cells assessed as protection against virus-induced cytopathicity measured after 5 days post-infection by MTT assay. As to conditions: Human immunodeficiency virus 1, MT4, 120 h. It counts as functional, organism-based.
Data set [5] has as its system Human immunodeficiency virus 1. Kind of data set: Antiviral activity against drug-resistant HIV-1 harboring RT K103N mutant infected in human MT4 cells assessed as protection against virus-induced cytopathicity measured after 5 days post-infection by MTT assay. It counts as functional, organism-based. The conditions noted are these: Human immunodeficiency virus 1, MT4, 120 h.

The subject of data set [6] is Human immunodeficiency virus 1. Kind of data set: Antiviral activity against drug-resistant HIV-1 harboring RT Y181C mutant infected in human MT4 cells assessed as protection against virus-induced cytopathicity measured after 5 days post-infection by MTT assay. It is filed as functional, organism-based. As to conditions: Human immunodeficiency virus 1, MT4, 120 h.
Data set [7] has as its system Human immunodeficiency virus 1. Briefly: Antiviral activity against drug-resistant HIV-1 harboring RT Y188L mutant infected in human MT4 cells assessed as protection against virus-induced cytopathicity measured after 5 days post-infection by MTT assay. As to conditions: Human immunodeficiency virus 1, MT4, 120 h. It counts as functional, organism-based.
For data set [8], the system named is Human immunodeficiency virus 1. Kind of data set: Antiviral activity against drug-resistant HIV-1 harboring RT E138K mutant infected in human MT4 cells assessed as protection against virus-induced cytopathicity measured after 5 days post-infection by MTT assay. The conditions noted are these: Human immunodeficiency virus 1, MT4, 120 h. It is filed as functional, organism-based.

For data set [9], the system named is Human immunodeficiency virus 1. Briefly: Antiviral activity against drug-resistant HIV-1 harboring RT F227L/V106A mutant infected in human MT4 cells assessed as protection against virus-induced cytopathicity measured after 5 days post-infection by MTT assay. It is filed as functional, organism-based. The conditions noted are these: Human immunodeficiency virus 1, MT4, 120 h.

Data set [10] relates to Human immunodeficiency virus 1. Kind of data set: Antiviral activity against drug-resistant HIV-1 harboring RT RES056 mutant infected in human MT4 cells assessed as protection against virus-induced cytopathicity measured after 5 days post-infection by MTT assay. It counts as functional, organism-based. As to conditions: Human immunodeficiency virus 1, MT4, 120 h.
Data set [11] addresses Human immunodeficiency virus type 1 reverse transcriptase (Human immunodeficiency virus 1, UniProt Q72547). Briefly: Inhibition of recombinant wild type HIV-1 reverse transcriptase incubated for 40 mins in presence of poly(rA) template/oligo(dT)16 primer by Pico-Green dye based analysis.
Data set [12] in a line: Selectivity index, ratio of CC50 for cytotoxicity against human MT4 cells to EC50 for antiviral activity against wild-type HIV-1 IIIB infected in human MT4 cells. It counts as toxicity, cell-based. The conditions noted are these: read-out: Ratio CC50/EC50.
A short description of data set [13]: Solubility of compound at pH 7. It is filed as physicochemical. The conditions noted are these: buffer.
A short description of data set [14]: Stability in human plasma assessed as compound remaining at 1 uM measured immediately by LC-MS/MS analysis. It is filed as ADME, cell-free. As to conditions: read-out: Stability.
Data set [15] in a line: Stability in human plasma assessed as compound remaining at 1 uM measured after 3 hrs by LC-MS/MS analysis. It is filed as ADME, cell-free. As to conditions: read-out: Stability.
Data set [16] can be described thus: Metabolic stability in rat liver microsomes assessed as half life at 1 uM measured up to 45 mins by LC/MS/MS analysis. It counts as ADME, Microsome. As to conditions: 0.75 h.
The nature of data set [17]: Metabolic stability in dog liver microsomes assessed as half life at 1 uM measured up to 45 mins by LC/MS/MS analysis. It is filed as ADME, Canis lupus familiaris, Microsome. As to conditions: liver microsomes.
Data set [18] is described as follows: Drug metabolism in human liver microsomes assessed as metabolic fraction at 1 uM measured up to 45 mins by LC/MS/MS analysis. It is filed as ADME, Microsome. The conditions noted are these: liver microsomes, read-out: Fm.
Data set [19] can be described thus: Drug metabolism in rat liver microsomes assessed as metabolic fraction at 1 uM measured up to 45 mins by LC/MS/MS analysis. It is filed as ADME, Microsome. As to conditions: 0.75 h.
A short description of data set [20]: Drug metabolism in dog liver microsomes assessed as metabolic fraction at 1 uM measured up to 45 mins by LC/MS/MS analysis. It counts as ADME, Canis lupus familiaris, Microsome. The conditions noted are these: liver microsomes, read-out: Fm.
Data set [21] in a line: Protein binding in human plasma assessed as drug recovery rate at 1 uM incubated for 6 hrs. It counts as ADME, cell-free. As to conditions: read-out: Drug recovery.

The EC50 is the concentration at which the effect is half-maximal. For orientation: CC50 means the concentration that lowers cell viability or growth by half. Broadly, the half-life is the time in which the quantity being followed falls by half. Usually IC50 stands for the concentration that gives 50% inhibition. Regarding `[2H]C([2H])([2H])c1cc(/C=C/C#N)cc(C)c1Nc1ccnc(Nc2ccc(C#N)cc2)n1`, the EC50 is 0.00117 µM in data set [1]; 0.0023 µM in data set [4]; 0.00196 µM in data set [5]; 0.00271 µM in data set [6]; 0.0726 µM in data set [7]; 0.0046 µM in [8]. For the same molecule, the figures for the EC50 in data set [9] and in [10] were 0.0698 µM and 0.0129 µM, respectively. Also, the CC50 in data set [2] is 6.56 µM. The half-life at 1 µM in data set [3] was 19.4 min. Also, the concentration for half-maximal inhibition (IC50) in data set [11] was found to be 0.03 µM.
As to `[2H]C([2H])([2H])c1cc(-c2ccc(C#N)cc2)cc(C)c1Nc1ccnc(Nc2ccc(C#N)cc2)n1`, the concentration giving a half-maximal response (EC50) in data set [1] worked out at 0.0025 µM; in data set [4], 0.00274 µM; in data set [5], 0.00381 µM; in data set [6], 0.00614 µM; in [7], 0.0575 µM; in data set [8] it was 0.00864 µM. Moreover, the EC50 in data set [9] was determined as 0.626 µM; in data set [10] it was 0.0586 µM. Further, the CC50 in data set [2] amounted to 5.94 µM. Also, the selectivity ratio in data set [12] was determined as 2370. For the same molecule, the half-life at 1 µM in data set [3] was 16.6 min. The 50% inhibitory concentration (IC50) in data set [11] was 0.38 µM.
As to `[2H]C([2H])([2H])c1cc(-c2ccc(C#N)cc2)cc(C([2H])([2H])[2H])c1Nc1ccnc(Nc2ccc(C#N)cc2)n1`, the half-maximal effective concentration (EC50) in [1] was 0.00183 µM; in data set [4], 0.00272 µM; in [5] it was 0.0029 µM; in data set [6] it was 0.00757 µM; in data set [7], 0.0551 µM; in data set [8] it was 0.00893 µM. In addition, the concentration for a half-maximal effect (EC50) in data set [9] was found to be 0.697 µM; in [10], 0.0688 µM. The CC50 in data set [2] is 5.98 µM. Further, the selectivity ratio in [12] was 3260. For the same molecule, the half-life at 1 µM in data set [3] came out at 16.7 min. In addition, the IC50 in data set [11] was determined as 0.38 µM.
`[2H]C([2H])([2H])c1cc(C#N)cc(C)c1Oc1nc(NC2CCN(Cc3ccc(C(N)=O)cc3)CC2)nc2ccccc12`: the EC50 in [1] came out at 0.0054 µM; in [4], 0.0145 µM; in data set [5], 0.00486 µM; in [6], 0.047 µM; in data set [7], 0.0678 µM; in data set [8], 0.0631 µM. Moreover, the half-maximal effective concentration (EC50) was determined as 1.27 µM in data set [9] and 1.81 µM in [10]. Moreover, in [2], the 50% cytotoxic concentration (CC50) is 150 µM. For the same molecule, the selectivity ratio in data set [12] came to 27900. For the same molecule, the IC50 in data set [11] was found to be 0.21 µM.
As to `[2H]C([2H])([2H])c1cc(/C=C/C#N)cc(C([2H])([2H])[2H])c1Nc1ccnc(Nc2ccc(C#N)cc2)n1`, the EC50 turned out to be 0.00141 µM in data set [1]; 0.00242 µM in data set [4]; 0.00181 µM in data set [5]; 0.00275 µM in [6]; 0.00584 µM in data set [8]; 0.0762 µM in data set [9]. In data set [10], the EC50 worked out at 0.0132 µM. For the same molecule, in data set [2], the CC50 came to 6.59 µM. The half-life at 1 µM in data set [3] is 22.8 min. Moreover, the IC50 in data set [11] was 0.02 µM.
The term solubility denotes the dissolved amount per volume that the medium holds. `Cc1cc(C#N)cc(C)c1Oc1nc(Nc2ccc(C#N)cc2)nc(N)c1Br` [ETRAVIRINE] had a solubility in data set [13] of under 1 µg/mL. In data set [2], the CC50 was over 4.6 µM. The concentration giving a half-maximal response (EC50) in [4] was found to be 0.00422 µM; in data set [8] it was 0.0103 µM; in data set [10], 0.0365 µM.
With `CC[C@H](C)C(=O)O[C@H]1C[C@@H](C)C=C2C=C[C@H](C)[C@H](CC[C@@H]3C[C@@H](O)CC(=O)O3)[C@H]21` [LOVASTATIN], in data set [14], the remaining at 0 h, 1 µM turned out to be 100%. Also, the remaining at 3 h, 1 µM in data set [15] was 33.3%.
As to `Cc1cc(/C=C/C#N)cc(C)c1Nc1ccnc(Nc2ccc(C#N)cc2)n1` [RILPIVIRINE], the EC50 in [1] came out at 0.00127 µM; in data set [4], 0.00205 µM; in data set [5] it was 0.00089 µM; in data set [6], 0.00266 µM; in data set [7], 0.054 µM; in data set [8] it was 0.00314 µM. Also, the EC50 worked out at 0.0508 µM in [9] and 0.0124 µM in data set [10]. Also, in data set [2], the CC50 was 6.8 µM. For the same molecule, the half-life at 1 µM in [3] is 16 min; in data set [17], 79.3 min. In addition, the t1/2 in data set [3] (microsomes, 0.75 h, 1 µM) turned out to be 16 min; in data set [16] it was 7.3 min. Moreover, in [11], the concentration for half-maximal inhibition (IC50) stood at 0.02 µM. The metabolised at 0.75 h, 1 µM in [18] came to 13%; in [20], 44.8%. For the same molecule, the Fm in data set [19] is 13.3%.
Regarding `CC(=O)CC(c1ccccc1)c1c(O)c2ccccc2oc1=O` (stereo unspecified) [WARFARIN], the recovery at 6 h, 1 µM in data set [21] amounted to 96.9%.
